Source: patent US20240270786A1, “STEROID COMPOUNDS” (Epirium Bio Inc., priority 2022, published 2024)

Test: Pharmacokinetics: quantitative determination of compounds in mice plasma
Assay type: in vivo, C57BL/6 Mice
Conditions: 10 mg/kg PO single dose, vehicle 10% NMP; for AUC(0-inf) / AUC(0-t) / Cmax / Tmax: C57BL/6, mouse
Method: C57BL/6 Mice, Age 7-9 weeks, body weight range 20-25 g were used. The mice were fasted overnight. Mice were dosed once a day for a single day at 10 mg/kg, 10 mg/kg. 6 time-points were used for whole blood. 10% NMP was used as a vehicle. 9 animals were used per treatment, with three groups of three animals each. Group 1 had time points at 15 and 60 minutes, Group 2 had time points at 30 and 120 minutes, and Group 3 had time points at 90 and 240 minutes. An Oral (PO) route was used. Plasma and brain samples were collected (brain sample collected at terminal time point). Plasma was collected through the centrifugation of whole blood at 10,000 rpm for 10 minutes at 4° C. Samples were stored at −80° C. until processing.
1.00 mg/mL in 100% MeOH PP vials (prepared at RT yellow light) at 2-8° C. were used as stock solution. 12.22-50000 ng/mL using 80% MeOH PP vials (prepared at RT yellow light) at 2-8° C. were used as working solution. 0.98-4000 ng/mL (prepared at RT yellow light) was used for the curve range. For Compounds 26, 40, and 50, 1.00 mg/mL of Compound 53 in 100% methanol Ria vials (Prepared at RT yellow light) was used as IS stock solution, and 80 ng/mL of Compound 53 in 80% methanol (Prepared at RT yellow light) was used as IS working solution. For Compound 36, 1.00 mg/mL of Compound 47 in 100% methanol Ria vials (Prepared at RT yellow light) was used as IS stock solution, and 80 ng/mL of Compound 47 in 80% methanol (Prepared at RT yellow light) was used as IS working solution. A linear, 1/×2 fit type was used. The injection volume was 10 μL for Compounds 26 and 36, and 5 μL for Compounds 40 and 50. Mobile Phase A was 0.1% Formic Acid in water at room temperature. Mobile Phase B was 100% methanol at room temperature. R0 wash solution was 80% methanol at room temperature. R3 wash solution was IPA/MeOH/ACN/water (1:1:1:1) at room temperature. The column was Agilent Eclipse 50*2.1 mm 1.8 μm and the instrument was Shimadzu LC-40 UPLC and AB Sciez 6500+ with LCMS002.
Using a pipette, 25 μL of each sample were aliquoted (calibration curve sample, QC samples and blank matrix) to labeled 1.5 ml eppendorf. Using a pipette, 5.0 μL of IS of conc. 80 ng (Cocktail IS) was aliquoted to each standards and samples except Blank. All tubes were mixed on a multi-tube vortex for approximately 30 seconds. 50 μL of 10 mM Sodium bi-carbonate were added. 1 ml of tert-butyl methyl ether (TBME) was added. All tubes were mixed on a multi-tube vortex for approximately 5 minutes then centrifuged for 10 min at 5,000 rpm for Compounds 26 and 36 and at 10,000 rpm for Compounds 40 and 50, 4° C. The sample was kept in methanol containing dry ice for few seconds to freeze the Aqueous layer (flash freeze method). The upper organic layer was poured from the frozen tubes into the labeled 12×75-mm rial vials and evaporated to dryness under nitrogen using Liquid Evaporator (30° C., ˜15 psi, ˜10 mins). 200 μl of reconstitution solution (0.1% Formic Acid: MeOH (20:80 v/v) were added into each tube. Samples were Vortexed for 30 seconds then transferred to amber glass injection vials for injection.
After test item administration, blood samples were collected from individual animals in previously labeled Heparinised blood collection tubes. Blood samples were collected from retro orbital plexus. The time points for collection of blood samples from all the animals are; 0.25, 0.5, 1, 2 and 4 hr. The collected samples were subjected to centrifugation @ 10,000 rpm for 10 minutes at 40° C. for separation of plasma. Thereafter, plasma samples were collected in previously labeled plasma tubes. These were stored at −80° C. until analysis.

T½ [min] | AUC(0-inf) [ng·h/mL] | AUC(0-t) [ng·h/mL] | Cmax [ng/mL] | Tmax [min] | SMILES
62 | 993 | 930 | 2130 | 15 | CN1C(=O)CC[C@@]2(C)C1=CCC1C2[C@@H](O)C[C@@]2(C)C1CC[C@@H]2NC(=O)C1CC1 (stereo partly drawn) [Compound 26, N-((4aR,5S,6aS,7S)-5-hydroxy-1,4a,6a-trimethyl-2-oxo-2,3,4,4a,4b,5,6,6a,7,8,9,9a,9b,10-tetradecahydro-1H-indeno[5,4-f]quinolin-7-yl)cyclopropanecarboxamide]
66.6 | 1640 | 1500 | 1960 | 15 | CC(C)CCNC(=O)C1CCC2C3CC=C4N(C)C(=O)CC[C@]4(C)C3[C@@H](O)C[C@]12C (stereo partly drawn) [Compound 36, (4aR,5S,6aS)-5-hydroxy-N-isopentyl-1,4a,6a-trimethyl-2-oxo-2,3,4,4a,4b,5,6,6a,7,8,9,9a,9b,10-tetradecahydro-1H-indeno[5,4-f]quinoline-7-carboxamide]
56 | 2430 | 2300 | 2200 | 15 | CNC(=O)[C@H]1CCC2C3CC=C4N(C)C(=O)CC[C@]4(C)C3[C@@H](O)C[C@@]21C (stereo partly drawn) [Compound 40, (4aR,5S,6aS)-5-hydroxy-N,1,4a,6a-tetramethyl-2-oxo-2,3,4,4a,4b,5,6,6a,7,8,9,9a,9b,10-tetradecahydro-1H-indeno[5,4-f] quinoline-7-carboxamide]
